Results reported in ChEMBL document CHEMBL1649565, “Besifloxacin, a novel fluoroquinolone, has broad-spectrum in vitro activity against aerobic and anaerobic bacteria” (Antimicrob Agents Chemother, 2009).
In brackets after ≈: the same amount, converted by molar mass. Activity calls are given as the source filed them. The rule behind the calls is not given here.

Key:
Staphylococcus hominis [1] = test: Antibacterial activity against Staphylococcus hominis assessed as percent susceptible isolates by CLSI M100-S18 method; type: functional
Moraxella catarrhalis = test: Antibacterial activity against Moraxella catarrhalis by CLSI M7-A7 method; type: functional
Staphylococcus aureus [2] = test: Antibacterial activity against ciprofloxacin-susceptible and methicillin-resistant Staphylococcus aureus by CLSI M100-S18 method; type: functional
Citrobacter koseri [3] = test: Antibacterial activity against Citrobacter koseri by CLSI M7-A7 method; type: functional
[4] = system: Staphylococcus epidermidis
[5] = system: Staphylococcus epidermidis; test: Antibacterial activity against ciprofloxacin-susceptible and methicillin-resistant Staphylococcus epidermidis by CLSI M100-S18 method; type: functional
Citrobacter koseri [6] = test: Antibacterial activity against Citrobacter koseri assessed as percent susceptible isolates by CLSI M7-A7 method; type: functional
Streptococcus salivarius = test: Antibacterial activity against Streptococcus salivarius by CLSI M100-S18 method; type: functional
[7] = Antibacterial activity against Lancefield Streptococcus sp. 'group C' by CLSI M100-S18 method; type: functional
Staphylococcus warneri [8] = test: Antibacterial activity against Staphylococcus warneri assessed as percent susceptible isolates by CLSI M100-S18 method; type: functional
[9] = system: Staphylococcus lugdunensis; test: Antibacterial activity against Staphylococcus lugdunensis assessed as percent susceptible isolates by CLSI M100-S18 method; type: functional
Peptostreptococcus sp. [10] = test: Antibacterial activity against Peptostreptococcus sp. assessed as percent susceptible isolates by CLSI M11-A7 method; type: functional
[11] = Antibacterial activity against Lancefield Streptococcus sp. 'group G' by CLSI M100-S18 method; type: functional
[12] = system: Staphylococcus epidermidis; test: Antibacterial activity against ciprofloxacin-susceptible and methicillin-resistant Staphylococcus epidermidis assessed as percent susceptible isolates by CLSI M100-S18 method; type: functional
[13] = system: Staphylococcus haemolyticus; test: Antibacterial activity against Staphylococcus haemolyticus by CLSI M100-S18 method; type: functional
Streptococcus oralis = test: Antibacterial activity against Streptococcus oralis by CLSI M100-S18 method; type: functional
[14] = system: Staphylococcus saprophyticus; test: Antibacterial activity against Staphylococcus saprophyticus by CLSI M100-S18 method; type: functional
Streptococcus sp. [15] = test: Antibacterial activity against Lancefield Streptococcus sp. group F assessed as percent susceptible isolates by CLSI M100-S18 method; type: functional
Clostridium perfringens [16] = system: Clostridium perfringens
Cutibacterium acnes [17] = test: Antibacterial activity against Propionibacterium acnes by CLSI M11-A7 method; type: functional
Peptostreptococcus sp. [18] = test: Antibacterial activity against Peptostreptococcus sp. by CLSI M11-A7 method; type: functional
Prevotella sp. [19] = test: Antibacterial activity against Prevotella sp. assessed as percent susceptible isolates by CLSI M11-A7 method; type: functional
Streptococcus sp. [20] = test: Antibacterial activity against Lancefield Streptococcus sp. group F by CLSI M100-S18 method; type: functional
Staphylococcus aureus [21] = test: Antibacterial activity against non-ciprofloxacin-susceptible and methicillin-susceptible Staphylococcus aureus assessed as percent susceptible isolates by CLSI M100-S18 method; type: functional
Morganella morganii [22] = test: Antibacterial activity against Morganella morganii assessed as percent susceptible isolates by CLSI M7-A7 method; type: functional
Clostridium perfringens [23] = test: Antibacterial activity against Clostridium perfringens by CLSI M11-A7 method; type: functional
[24] = Antibacterial activity against Lancefield Streptococcus sp. 'group C' assessed as percent susceptible isolates by CLSI M100-S18 method; type: functional
Streptococcus sanguinis = test: Antibacterial activity against Streptococcus sanguinis by CLSI M100-S18 method; type: functional
Cutibacterium acnes [25] = test: Antibacterial activity against Propionibacterium acnes assessed as percent susceptible isolates by CLSI M11-A7 method; type: functional
Streptococcus agalactiae [26] = test: Antibacterial activity against Streptococcus agalactiae by CLSI M100-S18 method; type: functional
Streptococcus pyogenes [27] = test: Antibacterial activity against Streptococcus pyogenes assessed as percent susceptible isolates by CLSI M100-S18 method; type: functional
[28] = system: Staphylococcus epidermidis; test: Antibacterial activity against non-ciprofloxacin-susceptible and methicillin-susceptible Staphylococcus epidermidis by CLSI M100-S18 method; type: functional
[29] = system: Staphylococcus haemolyticus; test: Antibacterial activity against Staphylococcus haemolyticus assessed as percent susceptible isolates by CLSI M100-S18 method; type: functional
Morganella morganii [30] = test: Antibacterial activity against Morganella morganii by CLSI M7-A7 method; type: functional
Staphylococcus aureus [31] = test: Antibacterial activity against non-ciprofloxacin-susceptible and methicillin-susceptible Staphylococcus aureus by CLSI M100-S18 method; type: functional
[32] = system: Staphylococcus saprophyticus; test: Antibacterial activity against Staphylococcus saprophyticus assessed as percent susceptible isolates by CLSI M100-S18 method; type: functional
Legionella pneumophila = test: Antibacterial activity against Legionella pneumophila by CLSI M7-A7 method; type: functional
Staphylococcus warneri [33] = test: Antibacterial activity against Staphylococcus warneri by CLSI M100-S18 method; type: functional
Streptococcus mitis = test: Antibacterial activity against Streptococcus mitis by CLSI M100-S18 method; type: functional
Streptococcus anginosus = test: Antibacterial activity against Streptococcus anginosus by CLSI M100-S18 method; type: functional
[34] = system: Staphylococcus epidermidis; test: Antibacterial activity against non-ciprofloxacin-susceptible and methicillin-susceptible Staphylococcus epidermidis assessed as percent susceptible isolates by CLSI M100-S18 method; type: functional
Fusobacterium sp. [35] = test: Antibacterial activity against Fusobacterium sp. by CLSI M11-A7 method; type: functional
[36] = system: Staphylococcus lugdunensis; test: Antibacterial activity against Staphylococcus lugdunensis by CLSI M100-S18 method; type: functional
Streptococcus equinus = test: Antibacterial activity against Streptococcus bovis by CLSI M100-S18 method; type: functional
[37] = system: Staphylococcus epidermidis; remark: listed apart in the source
[38] = Antibacterial activity against Lancefield Streptococcus sp. 'group G' assessed as percent susceptible isolates by CLSI M100-S18 method; type: functional
[39] = system: Streptococcus intermedius; test: Antibacterial activity against Streptococcus intermedius by CLSI M100-S18 method; type: functional
Prevotella sp. [40] = test: Antibacterial activity against Prevotella sp. by CLSI M11-A7 method; type: functional
Staphylococcus aureus [41] = test: Antibacterial activity against ciprofloxacin-susceptible and methicillin-resistant Staphylococcus aureus assessed as percent susceptible isolates by CLSI M100-S18 method; type: functional
Bacteroides fragilis [42] = test: Antibacterial activity against Bacteroides fragilis by CLSI M11-A7 method; type: functional
Klebsiella oxytoca [43] = test: Antibacterial activity against Klebsiella oxytoca assessed as percent susceptible isolates by CLSI M7-A7 method; type: functional
Klebsiella oxytoca [44] = test: Antibacterial activity against Klebsiella oxytoca by CLSI M7-A7 method; type: functional
Streptococcus agalactiae [45] = test: Antibacterial activity against Streptococcus agalactiae assessed as percent susceptible isolates by CLSI M100-S18 method; type: functional
Bacteroides fragilis [46] = test: Antibacterial activity against Bacteroides fragilis assessed as percent susceptible isolates by CLSI M11-A7 method; type: functional
Fusobacterium sp. [47] = test: Antibacterial activity against Fusobacterium sp. assessed as percent susceptible isolates by CLSI M11-A7 method; type: functional
Streptococcus pyogenes [48] = test: Antibacterial activity against Streptococcus pyogenes by CLSI M100-S18 method; type: functional
[49] = system: Streptococcus constellatus; test: Antibacterial activity against Streptococcus constellatus by CLSI M100-S18 method; type: functional
Staphylococcus hominis [50] = test: Antibacterial activity against Staphylococcus hominis by CLSI M100-S18 method; type: functional

COc1c(N2CCNC(C)C2)c(F)cc2c(=O)c(C(=O)O)cn(C3CC3)c12 (stereo not given) [GATIFLOXACIN]
Activity (Staphylococcus hominis [1]): 32%
MIC50 (Moraxella catarrhalis): 0.25 µg/mL (≈ 0.666 µM)
MIC90 (Moraxella catarrhalis): 0.25 µg/mL (≈ 0.666 µM)
MIC50 (Staphylococcus aureus [2]): 0.06 µg/mL (≈ 0.16 µM)
MIC90 (Staphylococcus aureus [2]): 0.25 µg/mL (≈ 0.666 µM)
MIC50 (Citrobacter koseri [3]): 0.015 µg/mL (≈ 0.04 µM)
MIC90 (Citrobacter koseri [3]): 0.12 µg/mL (≈ 0.32 µM)
MIC90 [4]: inactive
MIC [5]: 0.06 µg/mL (≈ 0.16 µM)
MIC50 [5]: 0.06 µg/mL (≈ 0.16 µM)
Activity (Citrobacter koseri [6]): 99%
MIC50 (Streptococcus salivarius): 0.06 µg/mL (≈ 0.16 µM)
MIC90 (Streptococcus salivarius): 1 µg/mL (≈ 2.66 µM)
MIC [7]: ≤ 0.015 µg/mL
MIC50 [7]: ≤ 0.015 µg/mL
MIC90 [7]: 0.06 µg/mL (≈ 0.16 µM)
Activity (Staphylococcus warneri [8]): 86%
Activity [9]: 60%
Activity (Peptostreptococcus sp. [10]): inactive
MIC [11]: ≤ 0.015 µg/mL
MIC50 [11]: ≤ 0.015 µg/mL
MIC90 [11]: 0.06 µg/mL (≈ 0.16 µM)
Activity [12]: 88.9%
MIC50 [13]: 2 µg/mL (≈ 5.33 µM)
MIC90 [13]: 8 µg/mL (≈ 21.3 µM)
MIC50 (Streptococcus oralis): 0.06 µg/mL (≈ 0.16 µM)
MIC90 (Streptococcus oralis): 1 µg/mL (≈ 2.66 µM)
MIC50 [14]: 0.12 µg/mL (≈ 0.32 µM)
MIC90 [14]: 0.25 µg/mL (≈ 0.666 µM)
Activity (Streptococcus sp. [15]): 100%
Activity (Clostridium perfringens [16]): inactive
MIC (Cutibacterium acnes [17]): 0.25 µg/mL (≈ 0.666 µM)
MIC50 (Cutibacterium acnes [17]): 0.25 µg/mL (≈ 0.666 µM)
MIC90 (Cutibacterium acnes [17]): 0.5 µg/mL (≈ 1.33 µM)
MIC50 (Peptostreptococcus sp. [18]): 2 µg/mL (≈ 5.33 µM)
MIC90 (Peptostreptococcus sp. [18]): 4 µg/mL (≈ 10.7 µM)
Activity (Prevotella sp. [19]): inactive
MIC (Streptococcus sp. [20]): ≤ 0.015 µg/mL
MIC50 (Streptococcus sp. [20]): ≤ 0.015 µg/mL
MIC90 (Streptococcus sp. [20]): 0.06 µg/mL (≈ 0.16 µM)
Activity (Staphylococcus aureus [21]): 54.5%
Activity (Morganella morganii [22]): 90.2%
MIC50 (Clostridium perfringens [23]): 1 µg/mL (≈ 2.66 µM)
MIC90 (Clostridium perfringens [23]): 1 µg/mL (≈ 2.66 µM)
Activity [24]: 100%
MIC50 (Streptococcus sanguinis): 0.06 µg/mL (≈ 0.16 µM)
MIC90 (Streptococcus sanguinis): 1 µg/mL (≈ 2.66 µM)
Activity (Cutibacterium acnes [25]): inactive
MIC50 (Streptococcus agalactiae [26]): 0.03 µg/mL (≈ 0.0799 µM)
MIC90 (Streptococcus agalactiae [26]): 0.06 µg/mL (≈ 0.16 µM)
Activity (Streptococcus pyogenes [27]): <=0.015%
MIC [28]: 1 µg/mL (≈ 2.66 µM)
MIC50 [28]: 1 µg/mL (≈ 2.66 µM)
Activity [29]: 64.4%
MIC50 (Morganella morganii [30]): 0.12 µg/mL (≈ 0.32 µM)
MIC90 (Morganella morganii [30]): > 8 µg/mL
MIC50 (Staphylococcus aureus [31]): 4 µg/mL (≈ 10.7 µM)
MIC90 (Staphylococcus aureus [31]): > 8 µg/mL
Activity [32]: 99%
MIC50 (Legionella pneumophila): 1 µg/mL (≈ 2.66 µM)
MIC90 (Legionella pneumophila): 2 µg/mL (≈ 5.33 µM)
MIC50 (Staphylococcus warneri [33]): 0.12 µg/mL (≈ 0.32 µM)
MIC90 (Staphylococcus warneri [33]): 4 µg/mL (≈ 10.7 µM)
MIC50 (Streptococcus mitis): 0.06 µg/mL (≈ 0.16 µM)
MIC90 (Streptococcus mitis): 1 µg/mL (≈ 2.66 µM)
MIC50 (Streptococcus anginosus): 0.25 µg/mL (≈ 0.666 µM)
MIC90 (Streptococcus anginosus): 0.5 µg/mL (≈ 1.33 µM)
Activity [34]: 83.3%
MIC50 (Fusobacterium sp. [35]): 1 µg/mL (≈ 2.66 µM)
MIC90 (Fusobacterium sp. [35]): 4 µg/mL (≈ 10.7 µM)
MIC50 [36]: 0.12 µg/mL (≈ 0.32 µM)
MIC90 [36]: 2 µg/mL (≈ 5.33 µM)
MIC50 (Streptococcus equinus): 0.06 µg/mL (≈ 0.16 µM)
MIC90 (Streptococcus equinus): 1 µg/mL (≈ 2.66 µM)
MIC90 [37]: inactive
Activity [38]: 100%
MIC50 [39]: 0.06 µg/mL (≈ 0.16 µM)
MIC90 [39]: 1 µg/mL (≈ 2.66 µM)
MIC50 (Prevotella sp. [40]): 8 µg/mL (≈ 21.3 µM)
MIC90 (Prevotella sp. [40]): 16 µg/mL (≈ 42.6 µM)
Activity (Staphylococcus aureus [41]): 94.7%
MIC50 (Bacteroides fragilis [42]): 2 µg/mL (≈ 5.33 µM)
MIC90 (Bacteroides fragilis [42]): 4 µg/mL (≈ 10.7 µM)
Activity (Klebsiella oxytoca [43]): 96%
MIC50 (Klebsiella oxytoca [44]): 0.03 µg/mL (≈ 0.0799 µM)
MIC90 (Klebsiella oxytoca [44]): 0.5 µg/mL (≈ 1.33 µM)
Activity (Streptococcus agalactiae [45]): 100%
Activity (Bacteroides fragilis [46]): inactive
Activity (Fusobacterium sp. [47]): inactive
MIC50 (Streptococcus pyogenes [48]): 0.12 µg/mL (≈ 0.32 µM)
MIC90 (Streptococcus pyogenes [48]): 0.25 µg/mL (≈ 0.666 µM)
MIC50 [49]: 0.06 µg/mL (≈ 0.16 µM)
MIC90 [49]: 1 µg/mL (≈ 2.66 µM)
MIC50 (Staphylococcus hominis [50]): 1 µg/mL (≈ 2.66 µM)
MIC90 (Staphylococcus hominis [50]): 4 µg/mL (≈ 10.7 µM)
